Patent US11802131B2, “Glutarimides for medical treatment” (C4 Therapeutics, Inc., priority 2017, dated 2023)

molecular target: hCereblon(M1-L442)_hDDB1(M1-H1140) (Homo sapiens (Human), UniProt Q96SW2); test: Fluorescence direct binding protocol (tryptophan fluorescence titration); conditions: 20° C., excited at 280 nm, recorded at 340 nm, assay buffer 50 mM Hepes 7.4 200 mM NaCl; read-out: Fluorescence h-Cereblon_DDB1 Mean Kd_EQ
Description: Fluorescence Direct Binding Protocol
Determination of the affinities of compounds to protein containing one or more tryptophan is measurable by monitoring the fluorescence emission in direct mode. The measurements depending on the protein available amounts are performed either manually in a cuvette on ISS-PC1 photon counting spectrofluorometer or automatically in well plates on a fluorescence plate reader device. Fluorescence titrations are performed at 20° C. in the chosen binding assay buffer by using a defined constant protein concentration against ligand concentration variations. Small aliquots of known ligand concentration solubilized in DMSO were added and the fluorescence, excited at 280 nm, was recorded at 340 nm. The fluorescence intensity was corrected for protein dilution and for the filter effect (Birdsall et al.^72).
1) Optimization of measurement parameters to minimize protein consumption and to minimize the dilution effect and the DMSO content
2) Titration measurements of the protein against ligand by at least 12 titration steps to obtain a good s-curve fit
3) Repeat the same titration measurements with the ligand alone to enable correction
4) Check the stability of the protein once by titration against DMSO alone
5) Determination of the molar extinction coefficients of the ligand at 280 and 340 nm with help of an UV-spectrophotometer
6) Use Excel template for the correction of the measured raw data
7) Use GraphPad Prism software for the quadratic binding fit and the KD evaluation.

Chain of hCereblon(M1-L442)_hDDB1(M1-H1140) (Q96SW2 whole entry): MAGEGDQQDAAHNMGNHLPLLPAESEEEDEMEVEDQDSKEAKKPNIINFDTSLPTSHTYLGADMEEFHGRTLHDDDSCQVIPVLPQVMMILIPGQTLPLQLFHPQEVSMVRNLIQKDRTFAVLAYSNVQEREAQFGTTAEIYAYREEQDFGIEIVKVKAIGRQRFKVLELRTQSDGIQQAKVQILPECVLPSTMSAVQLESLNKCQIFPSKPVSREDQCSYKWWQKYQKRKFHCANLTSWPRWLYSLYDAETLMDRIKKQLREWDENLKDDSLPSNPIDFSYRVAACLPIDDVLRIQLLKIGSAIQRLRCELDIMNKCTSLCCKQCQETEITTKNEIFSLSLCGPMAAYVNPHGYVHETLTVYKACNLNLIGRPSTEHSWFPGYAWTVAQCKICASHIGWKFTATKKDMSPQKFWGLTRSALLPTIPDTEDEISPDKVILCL
Chain of hCereblon(M1-L442)_hDDB1(M1-H1140) (Q16531 whole entry partner): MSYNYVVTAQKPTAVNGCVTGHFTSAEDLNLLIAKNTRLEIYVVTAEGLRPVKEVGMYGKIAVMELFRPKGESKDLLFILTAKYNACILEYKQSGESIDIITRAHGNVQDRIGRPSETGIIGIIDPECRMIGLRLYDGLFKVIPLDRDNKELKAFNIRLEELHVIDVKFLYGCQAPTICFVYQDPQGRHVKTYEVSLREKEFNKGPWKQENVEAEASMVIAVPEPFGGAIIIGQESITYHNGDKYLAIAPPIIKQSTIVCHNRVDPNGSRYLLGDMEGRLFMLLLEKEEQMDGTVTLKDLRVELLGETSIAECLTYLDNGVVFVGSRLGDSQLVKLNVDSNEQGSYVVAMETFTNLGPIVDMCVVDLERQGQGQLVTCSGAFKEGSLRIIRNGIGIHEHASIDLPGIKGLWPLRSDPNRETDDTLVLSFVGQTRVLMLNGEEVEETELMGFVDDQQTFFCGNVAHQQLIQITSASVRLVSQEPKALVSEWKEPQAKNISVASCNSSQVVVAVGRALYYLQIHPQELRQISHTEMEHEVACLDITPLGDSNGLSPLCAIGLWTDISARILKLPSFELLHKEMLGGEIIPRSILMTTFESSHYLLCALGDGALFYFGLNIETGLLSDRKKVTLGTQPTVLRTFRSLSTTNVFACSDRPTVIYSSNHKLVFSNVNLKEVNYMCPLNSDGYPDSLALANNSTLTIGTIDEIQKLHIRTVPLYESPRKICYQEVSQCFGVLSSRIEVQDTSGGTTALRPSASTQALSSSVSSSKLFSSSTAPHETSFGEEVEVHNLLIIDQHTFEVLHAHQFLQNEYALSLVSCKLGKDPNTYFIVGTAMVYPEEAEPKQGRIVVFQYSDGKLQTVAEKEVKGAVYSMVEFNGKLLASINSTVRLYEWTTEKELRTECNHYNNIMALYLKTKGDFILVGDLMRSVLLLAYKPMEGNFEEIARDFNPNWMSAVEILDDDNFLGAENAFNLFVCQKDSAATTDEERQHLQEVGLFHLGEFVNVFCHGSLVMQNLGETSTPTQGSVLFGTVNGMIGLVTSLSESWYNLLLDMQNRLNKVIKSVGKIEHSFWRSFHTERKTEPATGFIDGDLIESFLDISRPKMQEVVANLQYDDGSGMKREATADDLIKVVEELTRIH

Kd	Compound
< 1 nM	O=C1CC[C@@H](NC(=O)c2cnn3ccccc23)C(=O)N1 [Example 48, (R)-N-(2,6-Dioxopiperidin-3-yl)pyrazolo[1,5-a]pyridine-3-carboxamide]
3 nM	CN(C(=O)c1c[nH]c2ccccc12)C1CCC(=O)NC1=O (stereo not drawn) [Example 16, N-(2,6-Dioxopiperidin-3-yl)-N-methyl-1H-indole-3-carboxamide]
6 nM	O=C1CC[C@@H](NC(=O)[C@H]2CCCc3ccccc32)C(=O)N1 [Example 26, (S)-N-((R)-2,6-Dioxopiperidin-3-yl)-1,2,3,4-tetrahydronaphthalene-1-carboxamide]
22 nM	CN(C(=O)N1CCc2ccccc21)C1CCC(=O)NC1=O (stereo not drawn) [Example 58, N-(2,6-Dioxopiperidin-3-yl)-N-methylindoline-1-carboxamide]
146 nM	O=C1CCC(NC(=O)C2CCc3ccccc32)C(=O)N1 (stereo not drawn) [Example 6, N-(2,6-Dioxopiperidin-3-yl)-2,3-dihydro-1H-indene-1-carboxamide]
8 nM	O=C1CCC(NC(=O)c2csc3ccccc23)C(=O)N1 (stereo not drawn) [Example 13, N-(2,6-Dioxopiperidin-3-yl)benzo[b]thiophene-3-carboxamide]
68 nM	CN1CCC(C(=O)N[C@@H]2CCC(=O)NC2=O)c2ccccc21 (stereo partly drawn) [Example 40, N-[(3R)-2,6-Dioxo-3-piperidyl]-1-methyl-3,4-dihydro-2H-quinoline-4-carboxamide]
6 nM	O=C1CC[C@H](NC(=O)c2ccc3ccccn23)C(=O)N1 [Example 52, (S)-N-(2,6-Dioxopiperidin-3-yl)indolizine-3-carboxamide]
14 nM	O=C1CC[C@@H](NC(=O)c2c[nH]c3ccccc23)C(=O)N1 [Example 18, (R)-N-(2,6-Dioxopiperidin-3-yl)-1H-indole-3-carboxamide]
19 nM	O=C1CC[C@@H](NC(=O)C2CCNc3ccccc32)C(=O)N1 (stereo partly drawn) [Example 39, N-[(3R)-2,6-Dioxo-3-piperidyl]-1,2,3,4-tetrahydroquinoline-4-carboxamide]
< 1 nM	O=C1CC[C@@H](NC(=O)[C@H]2CCNc3ccccc32)C(=O)N1 [Example 43, (4S)-N-[(3R)-2,6-Dioxopiperidin-3-yl]-1,2,3,4-tetrahydroquinoline-4-carboxamide]
6 nM	O=C1CC[C@H](NC(=O)[C@@H]2CCNc3ccccc32)C(=O)N1 [Example 33, (4R)-N-[(3S)-2,6-Dioxopiperidin-3-yl]-1,2,3,4-tetrahydroquinoline-4-carboxamide]
19 nM	O=C1CC[C@@H](NC(=O)N2CCCc3ccccc32)C(=O)N1 [Example 35, (R)-N-(2,6-Dioxopiperidin-3-yl)-3,4-dihydroquinoline-1(2H)-carboxamide]
197 nM	O=C1CCC(NC(=O)C2CCc3ccccc32)C(=O)N1 (single isomer, unassigned; (+)) [Example 5, (+)-N-(2,6-Dioxopiperidin-3-yl)-2,3-dihydro-1H-indene-1-carboxamide]
2 nM	O=C1CCC(NC(=O)N2CCc3ccccc32)C(=O)N1 (stereo not drawn) [Example 9, N-(2,6-Dioxopiperidin-3-yl)indoline-1-carboxamide]
< 1 nM	O=C1CC[C@H](NC(=O)[C@H]2CCNc3ccccc32)C(=O)N1 [Example 32, (4S)-N-[(3S)-2,6-Dioxopiperidin-3-yl]-1,2,3,4-tetrahydroquinoline-4-carboxamide]
655 nM	O=C1CCC(NC(=O)C2CCc3ccccc32)C(=O)N1 (racemic) [Example 2, N-(2,6-Dioxopiperidin-3-yl)-2,3-dihydro-1H-indene-1-carboxamide]
< 1 nM	O=C1CC[C@@H](NC(=O)c2n[nH]c3ccccc23)C(=O)N1 [Example 49, (R)-N-(2,6-Dioxopiperidin-3-yl)-1H-indazole-3-carboxamide]
28 nM	O=C1CCC(NC(=O)c2c[nH]c3ccccc23)C(=O)N1 (stereo not drawn) [Example 7, N-(2,6-Dioxopiperidin-3-yl)-1H-indole-3-carboxamide]
30 nM	Cn1cc(C(=O)NC2CCC(=O)NC2=O)c2ccccc21 (stereo not drawn) [Example 8, N-(2,6-Dioxopiperidin-3-yl)-1-methyl-1H-indole-3-carboxamide]
20 nM	CN(C(=O)N1CCc2ccccc21)[C@H]1CCC(=O)NC1=O [Example 59, (S)-N-(2,6-Dioxopiperidin-3-yl)-N-methylindoline-1-carboxamide]

The remaining lines, values behind:

Compound	Kd
CC(=O)Nc1ccc(CC(=O)N[C@@H]2CCC(=O)NC2=O)cc1 [Example 66, (R)-2-(4-Acetamidophenyl)-N-(2,6-dioxopiperidin-3-yl)acetamide]	86 nM
Cn1nc(C(=O)N[C@H]2CCC(=O)NC2=O)c2c1CCNC2 [Example 72, (S)-N-(2,6-Dioxopiperidin-3-yl)-1-methyl-4,5,6,7-tetrahydro-1H-pyrazolo[4,3-c]pyridine-3-carboxamide]	194 nM
CN1CCC(C(=O)N[C@H]2CCC(=O)NC2=O)c2ccccc21 (stereo partly drawn) [Example 38, N-[(3S)-2,6-Dioxo-3-piperidyl]-1-methyl-3,4-dihydro-2H-quinoline-4-carboxamide]	5 nM
O=C1CC[C@@H](NC(=O)c2cnc3ccccn23)C(=O)N1 [Example 55, (R)-N-(2,6-Dioxopiperidin-3-yl)imidazo[1,2-a]pyridine-3-carboxamide]	< 1 nM
O=C1CC[C@@H](NC(=O)c2cnn3cccnc23)C(=O)N1 [Example 57, (R)-N-(2,6-Dioxopiperidin-3-yl)pyrazolo[1,5-a]pyrimidine-3-carboxamide]	7 nM
O=C1CC[C@H](NC(=O)Cc2ccc3c(c2)CC(=O)N3)C(=O)N1 [Example 69, (S)-N-(2,6-Dioxopiperidin-3-yl)-2-(2-oxoindolin-5-yl)acetamide]	15 nM
O=C1CC[C@@H](NC(=O)Cc2ccc3c(c2)CC(=O)N3)C(=O)N1 [Example 70, (R)-N-(2,6-Dioxopiperidin-3-yl)-2-(2-oxoindolin-5-yl)acetamide]	3 nM
O=C1CC[C@@H](NC(=O)c2ncc3ccccn23)C(=O)N1 [Example 51, (R)-N-(2,6-Dioxopiperidin-3-yl)imidazo[1,5-a]pyridine-3-carboxamide]	3 nM
CN1C(=O)CCC(NC(=O)[C@H]2CCCc3ccccc32)C1=O (single isomer, unassigned) [Example 75]	46 nM
O=C1CC[C@@H](NC(=O)Cc2cccnc2)C(=O)N1 [Example 63, (R)-N-(2,6-Dioxopiperidin-3-yl)-2-(pyridin-3-yl)acetamide]	19 nM
O=C1CC[C@H](NC(=O)N2CCc3cccnc32)C(=O)N1 [Example 29, (S)-N-(2,6-Dioxopiperidin-3-yl)-2,3-dihydro-1H-pyrrolo[2,3-b]pyridine-1-carboxamide]	< 1 nM
CN1C(=O)CCC(NC(=O)[C@H]2CCCc3ccccc32)C1=O (single isomer, unassigned) [Example 74]	5 nM
O=C1CC[C@H](NC(=O)C2CCc3ncccc32)C(=O)N1 (stereo partly drawn) [Example 19, N-((S)-2,6-Dioxopiperidin-3-yl)-6,7-dihydro-5H-cyclopenta[b]pyridine-5-carboxamide]	1 nM
Cc1sc2c(c1C)C(c1ccc(Cl)cc1)=N[C@@H](CC(=O)NCCOCCOCCOCC(=O)N1CC[C@@H](C(=O)N[C@H]3CCC(=O)NC3=O)c3ccccc31)c1nnc(C)n1-2 [Example C, (4R)-1-[2-[2-[2-[2-[[2-[(9S)-7-(4-Chlorophenyl)-4,5,13-trimethyl-3-thia-1,8,11,12-tetrazatricyclo[8.3.0.02,6]trideca-2(6),4,7,10,12-pentaen-9-yl]acetyl]amino]ethoxy]ethoxy]ethoxy]acetyl]-N-[(3S)-2,6-dioxo-3-piperidyl]-3,4-dihydro-2H-quinoline-4-carboxamide]	8 nM
CC(=O)Nc1cccc(CC(=O)N[C@@H]2CCC(=O)NC2=O)c1 [Example 67, (R)-2-(3-Acetamidophenyl)-N-(2,6-dioxopiperidin-3-yl)acetamide]	3 nM
